Measured values reported in ChEMBL document CHEMBL1201862, “PubChem BioAssay data set” (2004).
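Grown in 96-well plates, cells were treated for 48 hours with each compound at five concentrations. Insufficient inhibition: endpoint recorded as highest concentration tested. GI50 is the concentration that inhibits growth by half.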 Active and inactive are the calls of the source. Rule as the data show it: active = GI50 up to about 1.1 µM and inactive = higher.

Legend:
Assay in all cases: inhibition of tumour cell growth, NCI panel, 48 h
[1] = test system: SN12C
[2] = test system: ACHN
[3] = test system: HL-60
[4] = test system: Hs-578T
[5] = test system: MDA-MB-231
[6] = test system: K562
[7] = test system: PC-3
[8] = test system: HOP-92
[9] = test system: NCI/ADR-RES
[10] = test system: CAKI-1
[11] = test system: LOX IMVI
[12] = test system: SNB-19
[13] = test system: SF-268
[14] = test system: RPMI-8226
[15] = test system: SK-MEL-2
[16] = test system: SF-539
[17] = test system: Malme-3M
[18] = test system: SK-MEL-5
[19] = test system: SW-620
[20] = test system: BT-549

Measured: GI50

c1ccc(CSC2(SCc3ccccc3)CCCCC2)cc1
inactive: [1] > 10 µM | [2] > 10 µM | [3] > 10 µM | [4] > 10 µM | [5] > 10 µM | [6] > 10 µM | [7] > 10 µM | [8] > 10 µM | [9] > 10 µM | [10] > 10 µM | [11] > 10 µM | [12] > 10 µM | [13] > 10 µM | [14] > 10 µM | [15] > 10 µM | [16] > 10 µM | [17] > 10 µM | [18] > 10 µM | [19] > 10 µM

CCC1(c2ccc(OC)c(OC)c2)CCN(S(=O)(=O)c2ccc(C)cc2)C1 (configuration not stated)
inactive: [1] > 100 µM | [2] > 100 µM | [20] > 100 µM | [5] > 100 µM | [6] > 10 µM | [7] > 100 µM | [9] 72.8 µM | [10] > 100 µM | [11] > 100 µM | [12] > 100 µM | [13] > 100 µM | [15] > 100 µM | [16] > 100 µM | [18] 33.7 µM | [19] > 100 µM

COP(=O)(OC)OCN(C)CC/C=C(\C)CC/C=C(\C)CCC=C(C)C
inactive: [1] 15.6 µM | [2] 22.8 µM | [20] 16.4 µM | [5] 20.2 µM | [6] 6.21 µM | [7] 7.57 µM | [8] 17.6 µM | [9] 13 µM | [10] 17.6 µM | [11] 15.8 µM | [12] 10.4 µM | [13] 16.4 µM | [14] 10.6 µM | [15] 14.9 µM | [16] 15.7 µM | [17] 14.9 µM | [18] 11.8 µM | [19] 15.6 µM

CCCN(CCC)C(=O)c1c(N2CCN(C)CC2)c2cccnc2n2c(C)cnc12
inactive: [1] > 100 µM | [2] > 100 µM | [3] > 100 µM | [4] > 100 µM | [5] > 100 µM | [6] > 100 µM | [7] > 100 µM | [8] > 100 µM | [9] > 100 µM | [10] 60.8 µM | [11] > 100 µM | [12] 27.5 µM | [13] > 100 µM | [14] > 100 µM | [15] > 100 µM | [16] > 100 µM | [17] > 100 µM | [18] > 100 µM | [19] 17.5 µM

COCC1OC(Sc2ccccc2)C(O)C(OC)C1OC (configuration not stated)
inactive: [1] > 100 µM | [2] > 100 µM | [20] > 100 µM | [3] > 100 µM | [4] > 100 µM | [5] > 100 µM | [6] > 100 µM | [7] > 100 µM | [9] > 100 µM | [10] > 100 µM | [11] > 100 µM | [12] > 100 µM | [13] > 100 µM | [15] > 100 µM | [16] > 100 µM | [17] > 100 µM | [18] > 100 µM | [19] > 100 µM

O=c1[nH]nc(-c2ccc3ccccc3c2)[nH]1
inactive: [1] > 100 µM | [2] > 100 µM | [20] > 100 µM | [3] > 100 µM | [4] 2.81 µM | [6] > 100 µM | [7] > 100 µM | [9] > 100 µM | [10] > 100 µM | [11] > 100 µM | [12] > 100 µM | [13] > 100 µM | [14] > 100 µM | [15] > 100 µM | [16] > 100 µM | [17] > 100 µM | [19] > 100 µM

CCN(CC)Cc1cc(Nc2ccnc3ccc4c(nnn4C)c23)ccc1O
inactive: [1] 6.1 µM | [2] 2.81 µM | [20] 18.8 µM | [3] 9.89 µM | [4] 15.5 µM | [5] 17.2 µM | [6] 5.24 µM | [7] 6.82 µM | [9] 19 µM | [10] 13.5 µM | [11] 11.9 µM | [12] 5.55 µM | [13] 10.2 µM | [15] 16.1 µM | [16] 5.33 µM | [17] 13 µM | [18] 12.7 µM

O=[N+]([O-])c1ccc2c(c1)S(=O)(=O)N1Cc3ccccc3CCN21
inactive: [1] > 100 µM | [2] > 100 µM | [3] > 100 µM | [4] 26.7 µM | [5] > 100 µM | [6] > 100 µM | [7] > 100 µM | [8] 62.2 µM | [9] > 100 µM | [10] > 100 µM | [11] > 100 µM | [12] 35 µM | [13] 40.7 µM | [14] > 100 µM | [15] > 100 µM | [16] 54.5 µM | [17] > 100 µM | [18] > 100 µM | [19] > 100 µM
